This note sets out measurements from publication PMC9770960 (Science Advances, 2022).

Molecules are shown by their SMILES. pKd: −log10 of the molar value. Counter-ions that a name gives are not always drawn.

The test addresses T1, Rec1-resilin (Drosophila melanogaster, UniProt Q9V7U0).
T1 sequence (Q9V7U0 18-322 limits assumed): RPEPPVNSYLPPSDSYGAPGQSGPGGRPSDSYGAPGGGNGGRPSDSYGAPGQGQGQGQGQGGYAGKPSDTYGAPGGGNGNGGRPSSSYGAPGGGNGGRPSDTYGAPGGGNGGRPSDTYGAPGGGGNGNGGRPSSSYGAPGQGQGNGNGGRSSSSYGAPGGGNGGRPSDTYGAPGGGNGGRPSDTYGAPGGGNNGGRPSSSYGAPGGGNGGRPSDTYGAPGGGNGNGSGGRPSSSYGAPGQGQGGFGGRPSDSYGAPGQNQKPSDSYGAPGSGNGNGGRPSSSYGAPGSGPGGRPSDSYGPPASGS
Briefly: ANS fluorescence titration, Scatchard plot. The format is binding.

Compound `O=S(=O)(O)c1cccc2cccc(Nc3ccccc3)c12` [ANS, 8-anilino-1-naphthalenesulfonic acid (ammonium salt)] gave a pKd of 4.23.
